In patent US10167412B2, “Phenol polymer with 5,5′-biaryl bonds, method for preparing same, and uses thereof” (INSTITUT NATIONAL DE LA RECHERCHE AGRONOMIQUE, priority 2013, dated 2019):

Molecular target: T1, estrogen receptors (Homo sapiens, UniProt P03372)
T1 construct: expressed in transfected cells; host or cells: HELN-ERα cell line (HeLa-derived, per own knowledge of Escande et al. 2006)
T1 sequence (P03372 1-595): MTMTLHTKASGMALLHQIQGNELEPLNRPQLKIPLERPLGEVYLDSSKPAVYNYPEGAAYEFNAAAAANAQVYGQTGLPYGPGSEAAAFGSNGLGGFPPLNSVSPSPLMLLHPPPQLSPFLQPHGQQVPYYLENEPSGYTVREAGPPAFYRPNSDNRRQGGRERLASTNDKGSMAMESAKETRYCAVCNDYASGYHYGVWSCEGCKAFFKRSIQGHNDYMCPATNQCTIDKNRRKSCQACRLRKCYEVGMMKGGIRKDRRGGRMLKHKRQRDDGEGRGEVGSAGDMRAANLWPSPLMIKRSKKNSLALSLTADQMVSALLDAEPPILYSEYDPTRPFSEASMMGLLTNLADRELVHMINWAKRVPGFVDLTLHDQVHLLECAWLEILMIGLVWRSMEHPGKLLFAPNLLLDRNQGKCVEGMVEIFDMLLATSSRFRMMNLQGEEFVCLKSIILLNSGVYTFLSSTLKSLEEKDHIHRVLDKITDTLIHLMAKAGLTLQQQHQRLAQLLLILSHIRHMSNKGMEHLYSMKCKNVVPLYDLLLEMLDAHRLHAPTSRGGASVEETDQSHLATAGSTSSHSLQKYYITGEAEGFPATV
Experiment: Test for toxicity with respect to estrogen receptors on the HELN-ERα cell line
Type: cell-based
Settings: for interaction with estrogen receptors (% of antagonist activity with respect to estradiol (E2) at 10 nM): FIG. 12, result in words
Protocol: A test for toxicity with respect to estrogen receptors was carried out for the IDF, PDF, GDF and BDF macrobisphenols, according to the method set out in the publication by Molina-Molina et al., 2008 (Toxicol. Appl. Pharmacol., doi: 10.1016/j.taap.2008.07.017), on the HELN-ERα cell line, described in the publication by Escande et al., 2006 (Biochemical Pharmacology, 71, 1459-1469).
The results obtained, expressed as % of antagonist activity with respect to the activity of estradiol (E2) at 10 nM, as a function of the monomer concentration, are shown in FIG. 12.

Compound | interaction with estrogen receptors (% of antagonist activity with respect to estradiol (E2) at 10 nM) | percentage activity with respect to the activity of estradiol (E2) at 10 nM (at 10^−5 M) [%] | percentage activity with respect to the activity of estradiol (E2) at 10 nM (at 10^−6 M) [%]
COc1cc(CCC(=O)OCCCCOC(=O)CCc2ccc(O)c(OC)c2)ccc1O [BDF, butane-1,4-di(dihydroferulate)] | interact only very little | – | –
COc1cc(CCC(=O)OCC(O)COC(=O)CCc2ccc(O)c(OC)c2)ccc1O [GDF, glycerol-3-di(dihydroferulate)] | interact only very little | – | –
COc1cc(CCC(=O)O[C@H]2CO[C@H]3[C@@H]2OC[C@H]3OC(=O)CCc2ccc(O)c(OC)c2)ccc1O [IDF, isosorbide-2,5-(dihydroferulate)] | interact only very little | – | –
COc1cc(CCC(=O)OCCCOC(=O)CCc2ccc(O)c(OC)c2)ccc1O [PDF, propane-1,3-di(dihydroferulate)] | interact only very little | – | –
CC(C)(c1ccc(O)cc1)c1ccc(O)cc1 [bisphenol A, reference compound] | – | 60 | 45
